The subject of assay [1] is 60 human tumor cell lines. Put plainly: NCI in vitro screening against 60 human cell lines, single concentration. Type of assay: cell-based. As to conditions: 10 μM dose; negative values indicate cytotoxicity. As for the experimental part: Compounds selected from Compounds 3-44 were provided to the National Cancer Institute for in vitro screening against 60-human cell lines for their ability to inhibit the growth of tumor cells in a full panel representing nine different organs (blood, lung, colon, CNS, skin, ovary, kidney, prostate, and breast). The compounds were tested at a single concentration of 10 μM, and the percentages of growth inhibitions over the sixty tested cell lines were determined. Compounds showing the highest activity were chosen for secondary assays using five different compound concentrations.
The human tumor cell lines of the cancer screening panel were grown in RPMI 1640 medium containing 5% fetal bovine serum and 2 mM L-glutamine. For a typical screening experiment, cells are inoculated into 96 well microtiter plates in 100 μL at plating densities ranging from 5000 to 40,000 cells/well depending on the doubling time of individual cell lines. After cell inoculation, the microtiter plates are incubated at 37° C., 5% CO2, 95% air and 100% relative humidity for 24 hours prior to addition of experimental drugs. After 24 hours, two plates of each cell line are fixed in situ with Trichloroacetic acid (“TCA”), to represent a measurement of the cell population for each cell line at the time of drug addition. Experimental drugs are solubilized in dimethyl sulfoxide at 400-fold the desired final maximum test concentration and stored frozen prior to use. At the time of drug addition, an aliquot of frozen concentrate is thawed and diluted to twice the desired final maximum test concentration with complete medium containing 50 ng/mL gentamicin. An aliquot of 100 μL of this drug dilution is added to the appropriate microtiter wells already containing 100 μL of medium, resulting in the required final drug concentrations. Following drug addition, the plates are incubated for an additional 48 h at 37° C., 5% CO2, 95% air, and 100% relative humidity. For adherent cells, the assay is terminated by the addition of cold TCA. Cells are fixed in situ by the gentle addition of 50 μL of cold 50% (w/v) TCA (final concentration, 10% TCA) and incubated for 60 min at 4° C. The supernatant is discarded, and the plates are washed five times with tap water and air dried. Sulforhodamine B (SRB) solution (100 μL) at 0.4% (w/v) in 1% acetic acid is added to each well, and plates are incubated for 10 min at room temperature. After staining, unbound dye is removed by washing five times with 1% acetic acid and the plates are air dried. Bound stain is subsequently solubilized with 10 mM trizma base, and the absorbance is read on an automated plate reader at a wavelength of 515 nm. For suspension cells, the methodology is the same except that the assay is terminated by fixing settled cells at the bottom of the wells by gently adding 50 μL of 80% TCA (final concentration, 16% TCA). FIGS. 37-74 indicate the growth inhibition effects of selected Compounds against a variety of cell lines based on the above described testing configuration. FIGS. 37-74 present the Growth percent for a given compound against the cell lines and both values and a bar chart of the difference between the mean growth percent and the growth percent which is an indication of the selectivity of the compound for that particular cell line.

Assay [2] has as its system +SA mammary epithelial cells. Put plainly: MTT assay of +SA cells (antiproliferative activity). Type of assay: cell-based, mouse. As to conditions: 24 hours treatment, read-out: IC50 antiproliferative activity against +SA mammary epithelial cells. In short, it runs like this:
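Mouse +SA mammary adenocarcinoma cells in serum-free DMEM/F12 were grown 3 days, then treated 24 h with BSA-conjugated compounds (0–40 μM; DMSO <0.1%). Viable cell number came from MTT (570 nm) against a cell standard curve. IC50 was derived by linear regression.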

The structures appear in SMILES notation. Read-outs that look alike come from different tables or passages of the source.

Data on two molecules can be found in patent US9115145B2, “Tocotrienol derivatives and associated methods” (FIRST TECH INTERNATIONAL LIMITED, priority 2011, dated 2015).

In general, IC50 refers to the concentration at which inhibition is half-maximal.

For `COc1ccc(CCNCc2c(O)c(C)c(C)c3c2CC[C@@](C)(CC/C=C(\C)CC/C=C(\C)CCC=C(C)C)O3)cc1OC` [Compound 30, (R)-5-((3,4-dimethoxyphenethylamino)methyl)-2,7,8-trimethyl-2-((3E,7E)-4,8,12-trimethyltrideca-3,7,11-trienyl)chroman-6-ol], the “mean percent growth across all 60 cell lines (mean 60)” value in assay [1] is listed as “comparable to the activity of Compound 1”. Also, the IC50 in assay [2] (Mus musculus, +SA cell) stood at 3.19 µM.

As for `CC(C)=CCC/C(C)=C/CC/C(C)=C/CC[C@]1(C)CCc2cc(O)c(C)c(C)c2O1` [Compound 1, γ-tocotrienol, reference compound], in assay [1], the “mean percent growth across all 60 cell lines (mean 60)” value was “inactive”. For the same molecule, the concentration for half-maximal inhibition (IC50) in assay [2] turned out to be 4 µM.
